Data taken from ChEMBL document CHEMBL4152284, “Novel tetrahydrocarbazole benzyl pyridine hybrids as potent and selective butryl cholinesterase inhibitors with neuroprotective and β-secretase inhibition activities” (Eur J Med Chem, 2018).

What was measured:
Cholinesterase [1] = target: T1, Cholinesterase (Equus caballus, UniProt P81908); assay: Inhibition of equine serum BChE using butyrylthiocholine iodide as substrate preincubated for 10 mins followed by substrate addition measured for 5 mins by Ellman's method
Acetylcholinesterase [2] = target: T2, Acetylcholinesterase (Torpedo californica, UniProt P04058); assay: Inhibition of Torpedo californica AChE using acetylthiocholine iodide as substrate preincubated for 10 mins followed by substrate addition measured for 5 mins by Ellman's method; format: single protein, Tetronarce californica
[3] = Selectivity index, ratio of IC50 for Torpedo californica AChE to IC50 for equine serum BChE
Cholinesterase [4] = target: T1, Cholinesterase; assay: Mixed-type inhibition of equine serum BChE using varying levels of butyrylthiocholine iodide as substrate by Lineweaver-burk plot analysis
PC-12 = assay: Neuroprotective activity against H2O2-induced cell death in rat PC12 cells assessed as cell viability at 10 uM pretreated for 3 hrs followed by H2O2 addition and measured after 12 hrs by MTT assay relative to control; format: functional; conditions: read-out: Activity
[5] = target: Cholinesterase (Homo sapiens) (UniProt P06276); assay: Inhibition of human BchE (unknown origin)-induced amyloid beta (1 to 42) aggregation at 10 uM after 48 hrs by thioflavin T fluorescence method relative to control
[6] = target: Beta-secretase 1 (Homo sapiens) (UniProt P56817); assay: Inhibition of recombinant human BACE1 (1 to 460 residues) expressed in baculovirus-infected insect cells at 10 uM using Rh-EVNLDAEFK-quencher as substrate measured after 90 mins by fluorescence assay relative to control
[7] = target: Beta-secretase 1 (Homo sapiens) (UniProt P56817); assay: Inhibition of recombinant human BACE1 (1 to 460 residues) expressed in baculovirus-infected insect cells at 50 uM using Rh-EVNLDAEFK-quencher as substrate measured after 90 mins by fluorescence assay relative to control
[8] = target: Amyloid-beta precursor protein (Homo sapiens) (UniProt P05067); assay: Inhibition of HFIP-pretreated amyloid beta (1 to 42) (unknown origin) self-induced aggregation at 10 uM after 48 hrs by thioflavin-T fluorescence assay relative to control
[9] = target: Cholinesterase (Equus caballus) (UniProt P81908); assay: Potency index, ratio of donepezil IC50 to test compound IC50 for equine serum BChE
[10] = Selectivity index, ratio of IC50 for electric eel AChE to IC50 for equine serum BChE
Acetylcholinesterase [11] = target: T3, Acetylcholinesterase (Electrophorus electricus, UniProt O42275); assay: Inhibition of electric eel AChE using acetylthiocholine iodide as substrate preincubated for 10 mins followed by substrate addition measured for 6 mins by Ellman's method
Cholinesterase [12] = target: T1, Cholinesterase; assay: Inhibition of equine serum BChE using butyrylthiocholine iodide as substrate preincubated for 10 mins followed by substrate addition measured for 6 mins by Ellman's method
Acetylcholinesterase [13] = target: T2, Acetylcholinesterase; assay: Inhibition of Torpedo californica AChE using acetylthiocholine iodide as substrate preincubated for 15 mins followed by substrate addition by Ellman's method; design: species or system Tetronarce californica
Cholinesterase [14] = target: T1, Cholinesterase; assay: Inhibition of equine serum BChE using butyrylthiocholine iodide as substrate preincubated for 15 mins followed by substrate addition by Ellman's method
Acetylcholinesterase [15] = target: T3, Acetylcholinesterase; assay: Inhibition of electric eel AChE using acetylthiocholine iodide as substrate preincubated for 15 mins followed by substrate addition measured after 15 mins by Ellman's method
Cholinesterase [16] = target: T1, Cholinesterase; assay: Inhibition of equine serum BChE using butyrylthiocholine iodide as substrate preincubated for 15 mins followed by substrate addition measured after 15 mins by Ellman's method

T1 sequence (P81908 whole entry): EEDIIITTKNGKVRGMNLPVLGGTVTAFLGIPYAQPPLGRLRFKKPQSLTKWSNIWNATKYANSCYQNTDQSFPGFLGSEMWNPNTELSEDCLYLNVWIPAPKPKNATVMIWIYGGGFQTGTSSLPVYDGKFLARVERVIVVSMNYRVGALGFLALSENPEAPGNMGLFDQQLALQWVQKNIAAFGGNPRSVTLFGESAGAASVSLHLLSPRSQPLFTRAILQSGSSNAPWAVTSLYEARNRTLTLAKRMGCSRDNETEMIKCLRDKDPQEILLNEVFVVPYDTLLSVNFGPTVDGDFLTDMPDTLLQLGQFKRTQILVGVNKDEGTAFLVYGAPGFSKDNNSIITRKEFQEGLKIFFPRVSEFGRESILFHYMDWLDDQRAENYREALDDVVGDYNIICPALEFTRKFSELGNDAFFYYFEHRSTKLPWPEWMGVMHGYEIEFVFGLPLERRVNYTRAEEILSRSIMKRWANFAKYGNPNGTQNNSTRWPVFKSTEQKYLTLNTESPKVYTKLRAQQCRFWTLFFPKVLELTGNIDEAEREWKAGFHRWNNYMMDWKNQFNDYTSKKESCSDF
T2 sequence (P04058 whole entry): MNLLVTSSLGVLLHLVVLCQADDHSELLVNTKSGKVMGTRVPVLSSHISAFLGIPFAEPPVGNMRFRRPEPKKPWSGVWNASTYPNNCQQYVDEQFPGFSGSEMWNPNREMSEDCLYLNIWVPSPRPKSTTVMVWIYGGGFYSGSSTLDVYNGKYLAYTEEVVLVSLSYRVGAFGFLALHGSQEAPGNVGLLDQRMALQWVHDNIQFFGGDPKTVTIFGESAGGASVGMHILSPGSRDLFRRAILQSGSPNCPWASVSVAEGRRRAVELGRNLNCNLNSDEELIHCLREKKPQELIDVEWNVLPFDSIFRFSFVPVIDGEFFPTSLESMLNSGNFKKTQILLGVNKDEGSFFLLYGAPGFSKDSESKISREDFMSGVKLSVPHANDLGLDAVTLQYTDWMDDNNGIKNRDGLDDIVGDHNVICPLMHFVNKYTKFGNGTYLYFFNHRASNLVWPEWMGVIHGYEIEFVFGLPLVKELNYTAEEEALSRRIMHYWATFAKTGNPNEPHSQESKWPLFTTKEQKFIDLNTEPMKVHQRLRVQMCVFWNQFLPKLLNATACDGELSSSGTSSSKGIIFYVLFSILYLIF
Beta-secretase 1 (Homo sapiens), sequence (P56817 whole entry, the tested form may be a part): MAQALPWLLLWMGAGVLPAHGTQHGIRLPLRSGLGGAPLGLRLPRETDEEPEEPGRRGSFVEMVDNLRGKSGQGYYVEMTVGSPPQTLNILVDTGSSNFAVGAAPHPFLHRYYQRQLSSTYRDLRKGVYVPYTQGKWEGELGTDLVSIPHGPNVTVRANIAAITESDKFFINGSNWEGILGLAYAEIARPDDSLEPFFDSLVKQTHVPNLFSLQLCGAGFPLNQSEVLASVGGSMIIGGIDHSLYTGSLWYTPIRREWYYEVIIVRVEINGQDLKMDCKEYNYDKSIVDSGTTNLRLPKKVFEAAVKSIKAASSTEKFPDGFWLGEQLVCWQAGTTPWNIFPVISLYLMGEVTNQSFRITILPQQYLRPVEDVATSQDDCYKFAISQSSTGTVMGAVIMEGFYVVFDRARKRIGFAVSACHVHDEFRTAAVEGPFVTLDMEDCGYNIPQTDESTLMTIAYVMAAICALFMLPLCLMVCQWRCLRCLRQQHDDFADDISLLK
T3 sequence (O42275 whole entry): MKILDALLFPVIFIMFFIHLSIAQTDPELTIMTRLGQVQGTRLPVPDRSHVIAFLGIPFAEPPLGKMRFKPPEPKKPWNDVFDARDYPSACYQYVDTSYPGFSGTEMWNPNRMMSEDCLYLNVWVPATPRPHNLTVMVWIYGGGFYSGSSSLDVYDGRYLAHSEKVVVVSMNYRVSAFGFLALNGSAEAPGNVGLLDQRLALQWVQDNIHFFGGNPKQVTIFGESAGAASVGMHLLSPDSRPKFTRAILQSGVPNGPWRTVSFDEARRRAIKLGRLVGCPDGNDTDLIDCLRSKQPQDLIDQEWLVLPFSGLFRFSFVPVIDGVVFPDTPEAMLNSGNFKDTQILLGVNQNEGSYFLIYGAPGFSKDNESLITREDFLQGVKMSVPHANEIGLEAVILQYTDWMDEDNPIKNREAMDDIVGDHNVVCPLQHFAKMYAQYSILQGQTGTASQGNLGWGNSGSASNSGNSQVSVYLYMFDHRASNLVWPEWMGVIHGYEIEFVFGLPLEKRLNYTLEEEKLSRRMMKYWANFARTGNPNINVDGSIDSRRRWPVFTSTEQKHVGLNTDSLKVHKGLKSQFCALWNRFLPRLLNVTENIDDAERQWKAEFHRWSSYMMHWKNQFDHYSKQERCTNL
Cholinesterase (Homo sapiens), sequence (P06276 whole entry, the tested form may be a part): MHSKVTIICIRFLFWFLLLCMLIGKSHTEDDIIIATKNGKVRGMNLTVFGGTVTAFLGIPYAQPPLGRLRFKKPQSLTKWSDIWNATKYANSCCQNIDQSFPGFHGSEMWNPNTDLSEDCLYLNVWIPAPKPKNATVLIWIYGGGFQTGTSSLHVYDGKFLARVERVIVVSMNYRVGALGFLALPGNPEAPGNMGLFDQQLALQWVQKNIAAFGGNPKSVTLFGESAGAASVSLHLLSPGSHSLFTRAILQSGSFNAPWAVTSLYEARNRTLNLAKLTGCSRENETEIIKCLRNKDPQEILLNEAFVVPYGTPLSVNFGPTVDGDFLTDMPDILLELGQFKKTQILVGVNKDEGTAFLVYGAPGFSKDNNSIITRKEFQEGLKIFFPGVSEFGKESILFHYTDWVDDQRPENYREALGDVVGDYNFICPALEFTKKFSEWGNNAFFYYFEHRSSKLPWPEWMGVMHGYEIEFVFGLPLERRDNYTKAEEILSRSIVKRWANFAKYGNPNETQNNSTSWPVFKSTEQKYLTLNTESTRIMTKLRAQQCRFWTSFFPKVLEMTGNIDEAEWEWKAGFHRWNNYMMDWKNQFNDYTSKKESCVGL
Cholinesterase (Equus caballus), sequence (P81908 whole entry): as the sequence (P81908 whole entry) above
Amyloid-beta precursor protein (Homo sapiens), sequence (P05067 whole entry): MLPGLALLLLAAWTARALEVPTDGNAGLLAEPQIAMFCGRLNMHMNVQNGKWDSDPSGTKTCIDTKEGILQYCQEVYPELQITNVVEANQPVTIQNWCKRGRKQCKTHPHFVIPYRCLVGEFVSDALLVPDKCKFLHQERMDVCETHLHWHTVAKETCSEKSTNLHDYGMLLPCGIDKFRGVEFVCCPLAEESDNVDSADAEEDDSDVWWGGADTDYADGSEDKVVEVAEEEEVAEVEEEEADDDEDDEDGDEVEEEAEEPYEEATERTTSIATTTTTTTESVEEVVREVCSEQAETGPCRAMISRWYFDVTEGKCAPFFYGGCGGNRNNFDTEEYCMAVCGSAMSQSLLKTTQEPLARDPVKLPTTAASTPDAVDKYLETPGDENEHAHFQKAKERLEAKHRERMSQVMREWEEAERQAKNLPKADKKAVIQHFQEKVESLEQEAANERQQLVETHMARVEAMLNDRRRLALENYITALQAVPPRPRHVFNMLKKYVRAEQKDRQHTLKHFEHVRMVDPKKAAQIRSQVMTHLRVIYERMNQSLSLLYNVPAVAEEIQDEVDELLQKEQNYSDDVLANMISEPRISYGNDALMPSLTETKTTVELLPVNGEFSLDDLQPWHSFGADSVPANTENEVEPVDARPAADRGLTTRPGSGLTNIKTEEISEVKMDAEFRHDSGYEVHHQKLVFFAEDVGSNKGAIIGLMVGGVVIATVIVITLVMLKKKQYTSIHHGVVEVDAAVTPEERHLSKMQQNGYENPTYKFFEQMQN

| SMILES | IC50 (Cholinesterase [1]) [µM] | IC50 (Acetylcholinesterase [2]) [µM] | Ratio IC50 [3] | other results |
| --- | --- | --- | --- | --- |
| Cc1ccccc1C[n+]1ccc(Cn2c3c(c4ccccc42)CCCC3)cc1 | 0.4 | 8.4 | 21 |  |
| Cc1ccc(C[n+]2cccc(Cn3c4c(c5ccccc53)CCCC4)c2)cc1 | 0.088 | 15.9 | 181 | Ki (Cholinesterase [4]): 0.09 µM; viability at 10 µM (PC-12): 65%; inhibition [5]: 51.8%; inhibition [6]: 10%; inhibition [7]: 30%; inhibition [8]: 55.7%; Ratio IC50 [9]: 3.97 |
| Fc1cccc(C[n+]2cccc(Cn3c4c(c5ccccc53)CCCC4)c2)c1 | 0.56 | 77.1 | 138 |  |
| Fc1ccc(C[n+]2cccc(Cn3c4c(c5ccccc53)CCCC4)c2)cc1 | 0.52 | 71.7 | 138 |  |
| c1ccc(C[n+]2ccc(Cn3c4c(c5ccccc53)CCCC4)cc2)cc1 | 0.48 | 30 | 62.6 |  |
| O=C1Nc2ccccc2/C1=C\c1cc[n+](Cc2ccccc2Cl)cc1 |  |  |  | Ratio IC50 [10]: 3110; IC50 (Acetylcholinesterase [11]): 0.0004 µM; IC50 (Cholinesterase [12]): 1370 µM |
| Fc1ccccc1C[n+]1cccc(Cn2c3c(c4ccccc42)CCCC3)c1 | 0.51 | 67.7 | 133 |  |
| Clc1cccc(C[n+]2ccc(Cn3c4c(c5ccccc53)CCCC4)cc2)c1 | 0.26 | 4.8 | 18.5 |  |
| Clc1cccc(C[n+]2cccc(Cn3c4c(c5ccccc53)CCCC4)c2)c1 | 0.25 | 30 | 120 |  |
| Clc1ccc(C[n+]2ccc(Cn3c4c(c5ccccc53)CCCC4)cc2)cc1 | 2.1 | 25.6 | 12.2 |  |
| O=C1c2ccccc2C(=O)N1Cc1cc[n+](Cc2ccccc2F)cc1 |  |  | 11.3 | IC50 (Acetylcholinesterase [13]): 0.77 µM; IC50 (Cholinesterase [14]): 8.71 µM |
| Fc1ccc(C[n+]2ccc(Cn3c4c(c5ccccc53)CCCC4)cc2)cc1 | 0.73 | 32.8 | 44.9 |  |
| Cc1ccccc1C[n+]1cccc(Cn2c3c(c4ccccc42)CCCC3)c1 | 0.38 | 47 | 124 |  |
| O=C1CCC(=O)N1Cc1cc[n+](Cc2cccc(F)c2)cc1 |  |  | 6.34 | IC50 (Acetylcholinesterase [13]): 7.19 µM; IC50 (Cholinesterase [14]): 45.6 µM |
| Clc1ccccc1C[n+]1cccc(Cn2c3c(c4ccccc42)CCCC3)c1 | 0.2 | 36.1 | 180 |  |
| Clc1ccccc1C[n+]1ccc(Cn2c3c(c4ccccc42)CCCC3)cc1 | 0.29 | 6.5 | 22.4 |  |
| Fc1cccc(C[n+]2ccc(Cn3c4c(c5ccccc53)CCCC4)cc2)c1 | 0.98 | 34.3 | 35 |  |
| Cc1cccc(C[n+]2ccc(Cn3c4c(c5ccccc53)CCCC4)cc2)c1 | 0.24 | 5.1 | 21.2 |  |
| Cc1cccc(C[n+]2cccc(Cn3c4c(c5ccccc53)CCCC4)c2)c1 | 0.11 | 16.8 | 153 |  |
| Clc1ccc(C[n+]2cccc(Cn3c4c(c5ccccc53)CCCC4)c2)cc1 | 0.22 | 27.3 | 124 |  |
| Fc1ccccc1C[n+]1ccc(Cn2c3c(c4ccccc42)CCCC3)cc1 | 0.63 | 30 | 47.6 |  |
| Cc1ccc(C[n+]2ccc(Cn3c4c(c5ccccc53)CCCC4)cc2)cc1 | 0.7 | 14 | 20 |  |
| O=C(NCc1cc[n+](Cc2cccc(F)c2)cc1)c1cc2ccccc2oc1=O |  |  |  | IC50 (Acetylcholinesterase [15]): 10.1 µM; IC50 (Cholinesterase [16]): 12.2 µM; Ratio IC50 [10]: 0.83 |
| c1ccc(C[n+]2cccc(Cn3c4c(c5ccccc53)CCCC4)c2)cc1 | 0.38 | 48.1 | 126 |  |
